{"source": "patent US20250186437A1", "about": "“CARBOLINE COMPOUNDS AND USE THEREOF” (PTC Therapeutics, Inc., priority 2021, published 2025)", "system": "MOLM-13 cells", "experiment": "MOLM-13 Cell Proliferation Assay (indicator of DHODH inhibition)", "format": "cell-based", "conditions": "Homo sapiens, 72 Hours of culture, CellTiter-Glo, no uridine", "outline": "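Low-passage MOLM-13 cells (10^4/well) in RPMI 1640 + 10% FBS exposed to compound (0.5% DMSO final) for 72 h at 37 °C, 5% CO2. Viability read by CellTiter-Glo luminescence; growth reflects de novo pyrimidine synthesis dependent on DHODH.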"}
{"compound": "FC(F)(F)c1nc(N2CCOCC2)nc(N2CCc3c([nH]c4ccc(Cl)cc34)C2c2ccc(N3CCOCC3)nc2)n1", "note": "(stereo not drawn) [Compound 428, 6-chloro-1-[6-(morpholin-4-yl)pyridin-3-yl]-2-[4-(morpholin-4-yl)-6-(trifluoromethyl)-1,3,5-triazin-2-yl]-2,3,4,9-tetrahydro-1H-pyrido[3,4-b]indole]", "values": [{"measurement": "IC50", "result": 5.2, "unit": "nM"}]}
{"compound": "FC(F)(F)c1cnnc(N2CCc3c([nH]c4ccc(Cl)cc34)C2c2ccc(N3CCOCC3)nc2)n1", "note": "(stereo not drawn) [Compound 429, 6-chloro-1-[6-(morpholin-4-yl)pyridin-3-yl]-2-[5-(trifluoromethyl)-1,2,4-triazin-3-yl]-2,3,4,9-tetrahydro-1H-pyrido[3,4-b]indole]", "values": [{"measurement": "IC50", "result": 1.6, "unit": "nM"}]}
{"compound": "Cc1ccc(C2c3[nH]c4ccc(Cl)cc4c3CCN2c2nncc(C(F)(F)F)n2)cc1", "note": "(stereo not drawn) [Compound 430, 6-chloro-1-(4-methylphenyl)-2-[5-(trifluoromethyl)-1,2,4-triazin-3-yl]-2,3,4,9-tetrahydro-1H-pyrido[3,4-b]indole]", "values": [{"measurement": "IC50", "result": 1.8, "unit": "nM"}]}
{"compound": "Fc1nc(N2CCOCC2)ccc1C1c2[nH]c3ccc(Cl)cc3c2CCN1c1nccc(C(F)(F)F)n1", "note": "(stereo not drawn) [Compound 432, 6-chloro-1-[2-fluoro-6-(morpholin-4-yl)pyridin-3-yl]-2-[4-(trifluoromethyl)pyrimidin-2-yl]-2,3,4,9-tetrahydro-1H-pyrido[3,4-b]indole]", "values": [{"measurement": "IC50", "result": 1.6, "unit": "nM"}]}
{"compound": "N#Cc1cc(C(F)(F)F)nc(N2CCc3c([nH]c4ccc(Cl)cc34)[C@@H]2c2ccc(N3CCOCC3)nc2)n1", "note": "[Compound 433, 2-{(1S)-6-chloro-1-[6-(morpholin-4-yl)pyridin-3-yl]-1,3,4,9-tetrahydro-2H-pyrido[3,4-b]indol-2-yl}-6-(trifluoromethyl)pyrimidine-4-carbonitrile]", "values": [{"measurement": "IC50", "result": 1.1, "unit": "nM"}]}
{"compound": "N#Cc1cc(C(F)(F)F)nc(N2CCc3c([nH]c4ccc(Cl)cc34)[C@@H]2c2cnc(N3CCOCC3)nc2)n1", "note": "[Compound 434, 2-{(1S)-6-chloro-1-[2-(morpholin-4-yl)pyrimidin-5-yl]-1,3,4,9-tetrahydro-2H-pyrido[3,4-b]indol-2-yl}-6-(trifluoromethyl)pyrimidine-4-carbonitrile]", "values": [{"measurement": "IC50", "result": 1.2, "unit": "nM"}]}
{"compound": "Cc1ccc([C@H]2c3[nH]c4ccc(Cl)cc4c3CCN2c2nc(N3CCOCC3)nc(C(F)(F)F)n2)c(F)c1F", "note": "[Compound 436, (1S)-6-chloro-1-(2,3-difluoro-4-methylphenyl)-2-[4-(morpholin-4-yl)-6-(trifluoromethyl)-1,3,5-triazin-2-yl]-2,3,4,9-tetrahydro-1H-pyrido[3,4-b]indole]", "values": [{"measurement": "IC50", "result": 0.6, "unit": "nM"}]}
{"compound": "Cc1ccc(C2c3[nH]c4ccc(Cl)cc4c3CCN2c2nc(C)nc(C(F)(F)F)n2)cc1", "note": "(stereo not drawn) [Compound 437, 6-chloro-1-(4-methylphenyl)-2-[4-methyl-6-(trifluoromethyl)-1,3,5-triazin-2-yl]-2,3,4,9-tetrahydro-1H-pyrido[3,4-b]indole]", "values": [{"measurement": "IC50", "result": 1.8, "unit": "nM"}]}
{"compound": "Cc1nc(N2CCc3c([nH]c4ccc(Cl)cc34)C2c2ccc(C)c(F)c2F)nc(C(F)(F)F)n1", "note": "(stereo not drawn) [Compound 438, 6-chloro-1-(2,3-difluoro-4-methylphenyl)-2-[4-methyl-6-(trifluoromethyl)-1,3,5-triazin-2-yl]-2,3,4,9-tetrahydro-1H-pyrido[3,4-b]indole]", "values": [{"measurement": "IC50", "result": 0.6, "unit": "nM"}]}
{"compound": "Cc1nc(N2CCc3c([nH]c4ccc(Cl)cc34)C2c2ccc(N3CCOCC3)nc2)nc(C(F)(F)F)n1", "note": "(stereo not drawn) [Compound 439, 6-chloro-2-[4-methyl-6-(trifluoromethyl)-1,3,5-triazin-2-yl]-1-[6-(morpholin-4-yl)pyridin-3-yl]-2,3,4,9-tetrahydro-1H-pyrido[3,4-b]indole]", "values": [{"measurement": "IC50", "result": 1.9, "unit": "nM"}]}
{"compound": "Cc1nc(N2CCc3c([nH]c4ccc(Cl)cc34)C2c2cnc(N3CCOCC3)nc2)nc(C(F)(F)F)n1", "note": "(stereo not drawn) [Compound 440, 6-chloro-2-[4-methyl-6-(trifluoromethyl)-1,3,5-triazin-2-yl]-1-[2-(morpholin-4-yl)pyrimidin-5-yl]-2,3,4,9-tetrahydro-1H-pyrido[3,4-b]indole]", "values": [{"measurement": "IC50", "result": 2.1, "unit": "nM"}]}
{"compound": "Cc1ccc([C@H]2c3[nH]c4ccc(Cl)cc4c3CCN2c2nc(N(C)C)nc(C(F)(F)F)n2)cc1", "note": "[Compound 441, 4-[(1S)-6-chloro-1-(4-methylphenyl)-1,3,4,9-tetrahydro-2H-pyrido[3,4-b]indol-2-yl]-N,N-dimethyl-6-(trifluoromethyl)-1,3,5-triazin-2-amine]", "values": [{"measurement": "IC50", "result": 5.7, "unit": "nM"}]}
{"compound": "Cc1ccc([C@H]2c3[nH]c4ccc(Cl)cc4c3CCN2c2nc(N3CCOCC3)nc(C(F)(F)F)n2)cc1", "note": "[Compound 442, (1S)-6-chloro-1-(4-methylphenyl)-2-[4-(morpholin-4-yl)-6-(trifluoromethyl)-1,3,5-triazin-2-yl]-2,3,4,9-tetrahydro-1H-pyrido[3,4-b]indole]", "values": [{"measurement": "IC50", "result": 3.4, "unit": "nM"}]}
{"compound": "CN(C)c1nc(N2CCc3c([nH]c4ccc(Cl)cc34)[C@@H]2c2ccc(N3CCOCC3)nc2)nc(C(F)(F)F)n1", "note": "[Compound 443, 4-{(1S)-6-chloro-1-[6-(morpholin-4-yl)pyridin-3-yl]-1,3,4,9-tetrahydro-2H-pyrido[3,4-b]indol-2-yl}-N,N-dimethyl-6-(trifluoromethyl)-1,3,5-triazin-2-amine]", "values": [{"measurement": "IC50", "result": 3.1, "unit": "nM"}]}
{"compound": "CN(C)c1nc(N2CCc3c([nH]c4ccc(Cl)cc34)[C@@H]2c2cnc(N3CCOCC3)nc2)nc(C(F)(F)F)n1", "note": "[Compound 444, 4-{(1S)-6-chloro-1-[2-(morpholin-4-yl)pyrimidin-5-yl]-1,3,4,9-tetrahydro-2H-pyrido[3,4-b]indol-2-yl}-N,N-dimethyl-6-(trifluoromethyl)-1,3,5-triazin-2-amine]", "values": [{"measurement": "IC50", "result": 5.8, "unit": "nM"}]}
{"compound": "FC(F)(F)c1nc(N2CCOCC2)nc(N2CCc3c([nH]c4ccc(Cl)cc34)[C@@H]2c2cnc(N3CCOCC3)nc2)n1", "note": "[Compound 445, (1S)-6-chloro-1-[2-(morpholin-4-yl)pyrimidin-5-yl]-2-[4-(morpholin-4-yl)-6-(trifluoromethyl)-1,3,5-triazin-2-yl]-2,3,4,9-tetrahydro-1H-pyrido[3,4-b]indole]", "values": [{"measurement": "IC50", "result": 5.2, "unit": "nM"}]}
{"compound": "FC(F)(F)c1nc(N2CCOCC2)nc(N2CCc3c([nH]c4ccc(Cl)cc34)[C@@H]2c2ccc(N3CCOCC3)nc2)n1", "note": "[Compound 446, (1S)-6-chloro-1-[6-(morpholin-4-yl)pyridin-3-yl]-2-[4-(morpholin-4-yl)-6-(trifluoromethyl)-1,3,5-triazin-2-yl]-2,3,4,9-tetrahydro-1H-pyrido[3,4-b]indole]", "values": [{"measurement": "IC50", "result": 2.7, "unit": "nM"}]}
{"compound": "N#Cc1ccc(C2c3[nH]c4ccc(Cl)cc4c3CCN2c2nccc(C(F)(F)F)n2)cc1", "note": "(stereo not drawn) [Compound 447, 4-{6-chloro-2-[4-(trifluoromethyl)pyrimidin-2-yl]-2,3,4,9-tetrahydro-1H-pyrido[3,4-b]indol-1-yl}benzonitrile]", "values": [{"measurement": "IC50", "result": 4.8, "unit": "nM"}]}
{"compound": "Cc1nc(C)nc(N2CCc3c([nH]c4ccc(Cl)cc34)C2c2ccc(Cl)cc2)n1", "note": "(stereo not drawn) [Compound 449, 6-chloro-1-(4-chlorophenyl)-2-(4,6-dimethyl-1,3,5-triazin-2-yl)-2,3,4,9-tetrahydro-1H-pyrido[3,4-b]indole]", "values": [{"measurement": "IC50", "result": 15.2, "unit": "nM"}]}
{"compound": "Cc1nc(C)nc(N2CCc3c([nH]c4ccc(Cl)cc34)C2c2ccc(F)cc2)n1", "note": "(stereo not drawn) [Compound 450, 6-chloro-2-(4,6-dimethyl-1,3,5-triazin-2-yl)-1-(4-fluorophenyl)-2,3,4,9-tetrahydro-1H-pyrido[3,4-b]indole]", "values": [{"measurement": "IC50", "result": 29.8, "unit": "nM"}]}
{"compound": "Cc1nc(C)nc(N2CCc3c([nH]c4ccc(Cl)cc34)C2c2ccc(F)cc2F)n1", "note": "(stereo not drawn) [Compound 451, 6-chloro-1-(2,4-difluorophenyl)-2-(4,6-dimethyl-1,3,5-triazin-2-yl)-2,3,4,9-tetrahydro-1H-pyrido[3,4-b]indole]", "values": [{"measurement": "IC50", "result": 8, "unit": "nM"}]}
